Results taken from US5262417A, “Antibacterial quinolone compounds” (The Upjohn Company, priority 1991, dated 1993).
Values after ≈ are worked out from the molar mass of the structure shown. Read-outs that look alike come from different tables or passages of the source.

Assays:
Assay in all cases: Minimum inhibitory concentration (MIC) by agar dilution
Type in all cases: cell-based
[1] = system: Klebsiella pneumoniae
Experimental: (§1) The antibacterial activity of the compounds of Formula IC was determined by using standard testing procedures such as the determination of minimum inhibitory concentration (MIC) by agar dilution as described in "Methods for Dilution Antimicrobial Susceptibility Tests for Bacteria That Grow Aerobically" (MFT) published January 1983 by the National Committee for Clinical Laboratory Standards, 771 East Lancaster Avenue, Villanova, Pa. 19084, USA. Briefly, MIC values are determined in unsupplemented Mueller Hinton Agar (MHA). The compounds tested are diluted serially into molten MHA at 47° C. The agar is poured into petri dishes and allowed to harden. The various bacteria used for testing are grown overnight on MHA at 35° C. and transferred to Trypticase soy broth (TSB) until a turbidity of 0.5 McFarland standard is obtained. The bacteria are diluted one to 20 in TSB and inoculated on the plates (1 μl using a Steers replicator).
as §1, with “Compounds of this invention can also be tested for in vitro antimicrobial” for “The antibacterial”, “activity” for “activity of the compounds of Formula IC was determined by”, “Jan.” for “January”, “Penna.” for “Pa.”, “(1μl” for “(1 μl”, “replicator). […] The MIC test results of selected of Formula B compounds of this invention are found in Tables B2-B9.” for “replicator).”

[2] = system: Acinetobacter calcoaceticus; settings: Acinetobacter calcoaceticus
Experimental: as §1
as §1, with “Compounds of this invention can also be tested for in vitro antimicrobial” for “The antibacterial”, “activity” for “activity of the compounds of Formula IC was determined by”, “Jan.” for “January”, “Penna.” for “Pa.”, “(1μl” for “(1 μl”, “replicator). […] The MIC test results of selected of Formula B compounds of this invention are found in Tables B2-B9.” for “replicator).”

[3] = system: Pseudomonas aeruginosa; settings: Pseudomonas aeruginosa
Experimental: as §1
as §1, with “Compounds of this invention can also be tested for in vitro antimicrobial” for “The antibacterial”, “activity” for “activity of the compounds of Formula IC was determined by”, “Jan.” for “January”, “Penna.” for “Pa.”, “(1μl” for “(1 μl”, “replicator). […] The MIC test results of selected of Formula B compounds of this invention are found in Tables B2-B9.” for “replicator).”

[4] = system: Citerobacter freundii
Experimental: as §1
as §1, with “Compounds of this invention can also be tested for in vitro antimicrobial” for “The antibacterial”, “activity” for “activity of the compounds of Formula IC was determined by”, “Jan.” for “January”, “Penna.” for “Pa.”, “(1μl” for “(1 μl”, “replicator). […] The MIC test results of selected of Formula B compounds of this invention are found in Tables B2-B9.” for “replicator).”

[5] = system: Staphylococcus epidermidis; settings: 20 h
Experimental: as §1
as §1, with “Compounds of this invention can also be tested for in vitro antimicrobial” for “The antibacterial”, “activity” for “activity of the compounds of Formula IC was determined by”, “Jan.” for “January”, “Penna.” for “Pa.”, “(1μl” for “(1 μl”, “replicator). […] The MIC test results of selected of Formula B compounds of this invention are found in Tables B2-B9.” for “replicator).”

[6] = system: Escherichia coli; settings: Escherichia coli
Experimental: as §1
as §1, with “Compounds of this invention can also be tested for in vitro antimicrobial” for “The antibacterial”, “activity” for “activity of the compounds of Formula IC was determined by”, “Jan.” for “January”, “Penna.” for “Pa.”, “(1μl” for “(1 μl”, “replicator). […] The MIC test results of selected of Formula B compounds of this invention are found in Tables B2-B9.” for “replicator).”

[7] = system: Proteus penneri; settings: Proteus penneri
Experimental: as §1
as §1, with “Compounds of this invention can also be tested for in vitro antimicrobial” for “The antibacterial”, “activity” for “activity of the compounds of Formula IC was determined by”, “Jan.” for “January”, “Penna.” for “Pa.”, “(1μl” for “(1 μl”, “replicator). […] The MIC test results of selected of Formula B compounds of this invention are found in Tables B2-B9.” for “replicator).”

[8] = system: Streptococcus faecalis; settings: Enterococcus faecalis
Experimental: as §1
as §1, with “Compounds of this invention can also be tested for in vitro antimicrobial” for “The antibacterial”, “activity” for “activity of the compounds of Formula IC was determined by”, “Jan.” for “January”, “Penna.” for “Pa.”, “(1μl” for “(1 μl”, “replicator). […] The MIC test results of selected of Formula B compounds of this invention are found in Tables B2-B9.” for “replicator).”

[9] = system: Serratia marcescens; settings: 20 h, read-out: MINIMUM INHIBITORY CONCENTRATION
Experimental: as §1
as §1, with “Compounds of this invention can also be tested for in vitro antimicrobial” for “The antibacterial”, “activity” for “activity of the compounds of Formula IC was determined by”, “Jan.” for “January”, “Penna.” for “Pa.”, “(1μl” for “(1 μl”, “replicator). […] The MIC test results of selected of Formula B compounds of this invention are found in Tables B2-B9.” for “replicator).”

[10] = system: Staphylococcus aureus; settings: Staphylococcus aureus
Experimental: as §1
as §1, with “Compounds of this invention can also be tested for in vitro antimicrobial” for “The antibacterial”, “activity” for “activity of the compounds of Formula IC was determined by”, “Jan.” for “January”, “Penna.” for “Pa.”, “(1μl” for “(1 μl”, “replicator). […] The MIC test results of selected of Formula B compounds of this invention are found in Tables B2-B9.” for “replicator).”

[11] = system: Streptococcus pyogenes; settings: Streptococcus pyogenes
Experimental: as §1
as §1, with “Compounds of this invention can also be tested for in vitro antimicrobial” for “The antibacterial”, “activity” for “activity of the compounds of Formula IC was determined by”, “Jan.” for “January”, “Penna.” for “Pa.”, “(1μl” for “(1 μl”, “replicator). […] The MIC test results of selected of Formula B compounds of this invention are found in Tables B2-B9.” for “replicator).”

[12] = system: Streptococcus pneumoniae; settings: Streptococcus pneumoniae
Experimental: as §1
as §1, with “Compounds of this invention can also be tested for in vitro antimicrobial” for “The antibacterial”, “activity” for “activity of the compounds of Formula IC was determined by”, “Jan.” for “January”, “Penna.” for “Pa.”, “(1μl” for “(1 μl”, “replicator). […] The MIC test results of selected of Formula B compounds of this invention are found in Tables B2-B9.” for “replicator).”

[13] = system: Enterobacter cloacae
Experimental: Briefly, MIC values are determined in unsupplemented Mueller Hinton Agar (MHA). The compounds tested are diluted serially into molten MHA at 47° C. The agar is poured into petri dishes and allowed to harden. The various bacteria used for testing are grown overnight on MHA at 35° C. and transferred to Trypticase soy broth (TSB) until a turbidity of 0.5 McFarland standard is obtained. The bacteria are diluted one to 20 in TSB and inoculated on the plates (1 μl using a Steers replicator).
as §1, with “Compounds of this invention can also be tested for in vitro antimicrobial” for “The antibacterial”, “activity” for “activity of the compounds of Formula IC was determined by”, “Jan. […]” for “January 1983 by the National Committee for Clinical Laboratory Standards, 771 East Lancaster Avenue, Villanova, Pa. 19084, USA.”, “(1μl” for “(1 μl”

[14] = 20 h, read-out: MINIMUM INHIBITORY CONCENTRATION

O=C(O)c1cn(C23CC(C2)C3)c2nc(N3CCC(O)C3)c(F)cc2c1=O (racemic) [No. 91, 7-(3-hydroxy-1-pyrrolidinyl)-1-(bicyclo[1.1.1]pent-1-yl)-1,4-dihydro-6-fluoro-4-oxo-1,8-naphthyridine-3-carboxylic acid] gave an MIC [1, 14] of 0.5 µg/mL (≈ 1.39 µM), an MIC ([2]; 20 h, read-out: MINIMUM INHIBITORY CONCENTRATION, Cult No. 12170, MHA) of 0.5 µg/mL (≈ 1.39 µM) and an MIC ([3]; 20 h, read-out: MINIMUM INHIBITORY CONCENTRATION, Cult No. 6676, MHA) of 4 µg/mL (≈ 11.1 µM). The MIC ([3]; 20 h, read-out: MINIMUM INHIBITORY CONCENTRATION, Cult No. 9191, MHA) was 2 µg/mL (≈ 5.57 µM), the MIC ([3]; 20 h, read-out: MINIMUM INHIBITORY CONCENTRATION, Cult No. 12120, MHA) was 2 µg/mL (≈ 5.57 µM) and the MIC [4, 14] was 0.25 µg/mL (≈ 0.696 µM). For the same molecule, the MIC ([5]; read-out: MINIMUM INHIBITORY CONCENTRATION) was 0.125 µg/mL (≈ 0.348 µM), the MIC ([6]; 20 h, read-out: MINIMUM INHIBITORY CONCENTRATION, Cult No. 6674, MHA) was 0.125 µg/mL (≈ 0.348 µM) and the MIC ([6]; 20 h, read-out: MINIMUM INHIBITORY CONCENTRATION, Cult No. 9451, MHA) was 0.25 µg/mL (≈ 0.696 µM). It also gave an MIC ([6]; 20 h, read-out: MINIMUM INHIBITORY CONCENTRATION, Cult No. 9855, MHA) of 0.25 µg/mL (≈ 0.696 µM), an MIC ([6]; 20 h, read-out: MINIMUM INHIBITORY CONCENTRATION, Cult No. 9952, MHA) of 0.125 µg/mL (≈ 0.348 µM) and an MIC ([7]; 20 h, read-out: MINIMUM INHIBITORY CONCENTRATION, Cult No. 9679, MHA) of 1 µg/mL (≈ 2.78 µM). The MIC [8, 14] was 1 µg/mL (≈ 2.78 µM), the MIC [9] was 1 µg/mL (≈ 2.78 µM) and the MIC ([10]; 20 h, read-out: MINIMUM INHIBITORY CONCENTRATION, Cult No. 6685, MHA) was 0.06 µg/mL (≈ 0.167 µM). It also gave an MIC ([10]; 20 h, read-out: MINIMUM INHIBITORY CONCENTRATION, Cult No. 9213, MHA) of 0.125 µg/mL (≈ 0.348 µM), an MIC ([10]; 20 h, read-out: MINIMUM INHIBITORY CONCENTRATION, Cult No. 9218, MHA) of 0.125 µg/mL (≈ 0.348 µM) and an MIC ([10]; 20 h, read-out: MINIMUM INHIBITORY CONCENTRATION, Cult No. 9271, MHA) of 0.125 µg/mL (≈ 0.348 µM). It also gave an MIC ([11]; 20 h, read-out: MINIMUM INHIBITORY CONCENTRATION, Cult No. 152, MHA) of 2 µg/mL (≈ 5.57 µM), an MIC ([12]; 20 h, read-out: MINIMUM INHIBITORY CONCENTRATION, Cult No. 41, MHA) of 1 µg/mL (≈ 2.78 µM) and an MIC [13, 14] of 0.25 µg/mL (≈ 0.696 µM).
Molecule C#CC(C)(C)n1cc(C(=O)O)c(=O)c2cc(F)c(N3CCC(N)C3)nc21.CS(=O)(=O)O (racemic) [E, (+,-)-7-(3-amino-1-pyrrolidinyl)-1,4-dihydro-1-(1,1-dimethyl-2-propynyl)-6-fluoro-4-oxo-1,8-naphthyridine-3-carboxylic acid methanesulfonate] has an MIC ([1]; UC12081, 20 h, K. pneumoniae UC 12081, Table CI, read-out: Minimum Inhibitory Concentration) of 0.125 µg/mL, an MIC ([2]; UC12170, 20 h, A. calcoaceticus UC 12170, Table CI, read-out: Minimum Inhibitory Concentration) of 0.25 µg/mL and an MIC ([3]; UC6676, 20 h, Ps. aeruginosa UC 6676, Table CI, read-out: Minimum Inhibitory Concentration) of 2 µg/mL. It also gave an MIC ([3]; UC9191, 20 h, Ps. aeruginosa UC 9191, Table CI, read-out: Minimum Inhibitory Concentration) of 1 µg/mL, an MIC ([3]; UC12120, 20 h, Ps. aeruginosa UC 12120, Table CI, read-out: Minimum Inhibitory Concentration) of 0.5 µg/mL and an MIC ([4]; Citrobacter freundii, UC3507, 20 h, C. freundii UC 3507, Table CI, read-out: Minimum Inhibitory Concentration) of 0.06 µg/mL. It also gave an MIC ([5]; S. epidermidis 30031, Table CI, read-out: Minimum Inhibitory Concentration) of 0.125 µg/mL, an MIC ([6]; UC6674, 20 h, E. coli UC 6674, Table CI, read-out: Minimum Inhibitory Concentration) of 0.06 µg/mL and an MIC ([6]; UC9451, 20 h, E. coli UC 9451, Table CI, read-out: Minimum Inhibitory Concentration) of 0.06 µg/mL. The MIC ([6]; UC9855, 20 h, E. coli UC 9855, Table CI, read-out: Minimum Inhibitory Concentration) was 0.06 µg/mL, the MIC ([6]; UC9952, 20 h, E. coli UC 9952, Table CI, read-out: Minimum Inhibitory Concentration) was 0.06 µg/mL and the MIC ([7]; UC9679, 20 h, P. penneri UC 9679, Table CI, read-out: Minimum Inhibitory Concentration) was 0.5 µg/mL. It also gave an MIC ([8]; UC9217, 20 h, S. faecalis UC 9217, Table CI, read-out: Minimum Inhibitory Concentration) of 1 µg/mL, an MIC ([10]; UC6685, 20 h, S. aureus UC 6685, Table CI, read-out: Minimum Inhibitory Concentration) of 0.125 µg/mL and an MIC ([10]; UC9213, 20 h, S. aureus UC 9213, Table CI, read-out: Minimum Inhibitory Concentration) of 0.25 µg/mL. The MIC ([10]; UC9218, 20 h, S. aureus UC 9218, Table CI, read-out: Minimum Inhibitory Concentration) was 0.25 µg/mL, the MIC ([10]; UC9271, 20 h, S. aureus UC 9271, Table CI, read-out: Minimum Inhibitory Concentration) was 0.25 µg/mL and the MIC ([11]; UC152, 20 h, S. pyogenes UC 152, Table CI, read-out: Minimum Inhibitory Concentration) was 0.25 µg/mL. For the same molecule, the MIC ([12]; UC41, 20 h, S. pneumoniae UC 41, Table CI, read-out: Minimum Inhibitory Concentration) was 0.5 µg/mL and the MIC ([13]; UC9382, 20 h, E. cloacae UC 9382, Table CI, read-out: Minimum Inhibitory Concentration) was 0.06 µg/mL.
